{"source": "PubChem BioAssay AID1259411", "about": "(Chemical Carcinogenesis Research Information System (CCRIS), 2018)", "tested_on": "rodent carcinogenicity bioassays, tumor incidence", "experiment": "CCRIS carcinogenicity studies", "details": "Route: ORAL, Dose: 0, Dose: 0", "in_short": "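NCI-built, expert-reviewed records of carcinogenicity and related test outcomes (mutagenicity, tumor promotion/inhibition) compiled from published and report sources, historical span 1985-2011, not updated.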", "note": "The source made the active and inactive calls. The rule behind the calls is not given here."}
{"compound": "ClC1=C(Cl)[C@]2(Cl)[C@@H]3[C@H]4C[C@H]([C@@H]5O[C@H]45)[C@@H]3[C@@]1(Cl)C2(Cl)Cl", "values": [{"measurement": "carcinogen call", "setting": "Species: MOUSE, Strain/Sex: B6C3F1/FEMALE, 2.5, 5 PPM IN DIET, TWA, 2.5, 5 PPM IN DIET, TWA", "result": "inactive; negative"}, {"measurement": "carcinogen call", "setting": "Species: MOUSE, Strain/Sex: B6C3F1/MALE, 1.6, 3.2 PPM IN DIET, TWA, 1.6, 3.2 PPM IN DIET, TWA", "result": "inactive; negative"}, {"measurement": "carcinogen call", "setting": "Species: RAT, Strain/Sex: OSBORNE-MENDEL/FEMALE, 3, 6 PPM IN DIET, TWA, 3, 6 PPM IN DIET, TWA", "result": "inactive; negative"}, {"measurement": "carcinogen call", "setting": "Species: RAT, Strain/Sex: OSBORNE-MENDEL/MALE, 2.5, 5 PPM IN DIET, TWA, 2.5, 5 PPM IN DIET, TWA", "result": "inactive; negative"}]}
{"compound": "O=C(O)c1cc(Oc2ccc(C(F)(F)F)cc2Cl)ccc1[N+](=O)[O-]", "values": [{"measurement": "carcinogen call", "setting": "Species: MOUSE, Strain/Sex: B6C3F1/FEMALE, 625, 1250, 2500 PPM IN DIET FOR 18 MO (STUDY DURATION: 18 MO), 625, 1250, 2500 PPM IN DIET FOR 18 MO (STUDY DURATION: 18 MO), Tumor Site: Type of Lesion: LIVER: ADENOMA, CARCINOMA, STOMACH: PAPILLOMA", "result": "active; positive"}, {"measurement": "carcinogen call", "setting": "Species: MOUSE, Strain/Sex: B6C3F1/MALE, 625, 1250, 2500 PPM IN DIET FOR 18 MO (STUDY DURATION: 18 MO), 625, 1250, 2500 PPM IN DIET FOR 18 MO (STUDY DURATION: 18 MO), Tumor Site: Type of Lesion: LIVER: ADENOMA, CARCINOMA, STOMACH: PAPILLOMA", "result": "active; positive"}, {"measurement": "carcinogen call", "setting": "Species: MOUSE, Strain/Sex: CR-CD-1/FEMALE, 7.5, 4.5, 270 PPM IN DIET FOR 24 MO (STUDY DURATION: 24 MO), 7.5, 4.5, 270 PPM IN DIET FOR 24 MO (STUDY DURATION: 24 MO), Tumor Site: Type of Lesion: LIVER: ADENOMA OR CARCINOMA", "result": "active; positive"}, {"measurement": "carcinogen call", "setting": "Species: MOUSE, Strain/Sex: CR-CD-1/MALE, 7.5, 4.5, 270 PPM IN DIET FOR 24 MO (STUDY DURATION: 24 MO), 7.5, 4.5, 270 PPM IN DIET FOR 24 MO (STUDY DURATION: 24 MO), Tumor Site: Type of Lesion: LIVER: ADENOMA OR CARCINOMA", "result": "active; positive"}, {"measurement": "carcinogen call", "setting": "Species: RAT, Strain/Sex: F344/MALE, FEMALE, 25, 150, 500, 2500, 5000 PPM IN DIET FOR 2 YR (STUDY DURATION: 2 YR), 25, 150, 500, 2500, 5000 PPM IN DIET FOR 2 YR (STUDY DURATION: 2 YR)", "result": "inactive; negative"}]}
